This note sets out measurements from US10799501B2, “Combination of an inhibitor of PARP with an inhibitor of GSK-3 or DOT1L” (King's College London, priority 2015, dated 2020).

One test deals with Kasumi (AML1-ETO). Nature of the test: Humanized xenograft: NSG mice transplanted with Kasumi cells, Olaparib treatment. The test is classed as in vivo, mouse. As for the experimental part:
We established humanized models of AML1-ETO and PML-RARα leukemia in sub-lethally irradiated NOD/SCID/IL2Rg−/−(NSG, 1 dose 200 RADs) by transplanting 2×10^6 Kasumi (intra-femoral, IF) and 1×10^5 NB4-LR2 or 1×10^5 THP1 (intravenous, IV) cells. The day after the transplantation, mice were split into two groups and given intra-peritoneal injections of vehicle (10% HBC) or Olaparib (25 mg/kg in 10% HBC) daily for 2-4 weeks. The maximum tolerable dose was calculated by in vivo dose-response experiments. Mice were monitored daily until they developed symptoms of leukemia, when they were culled and bone marrow, spleen and liver harvested and analyzed by FACS. The engraftment of human donor cells was defined as human CD45/CD33 double positive by FACS.
On the technique in general: Xenograft models place foreign cells or tissue in a host animal.

Test [1] deals with MLL-AF9 leukemic cells (Hoxa9−/− background). Nature of the test: C57Bl/6 mice transplanted with Hoxa9−/− MLL-AF9 leukemic cells, Olaparib treatment. In kind it is in vivo, mouse. Conditions: Olaparib 50 mg/kg daily. As for the experimental part:
(§1) For Hoxa9 KO studies, we intravenously injected […] MLL-AF9 leukemic cells (wild type or Hoxa9−/− background) together with 2×10^5 bone marrow rescue cells into lethally irradiated C57Bl/6 mice (2 doses of irradiation 550 RADS each) for disease development. For drug studies, the control cohort received vehicle (10% 2-Hydroxpropyl-beta-cyclodextrin, HBC, Sigma-Aldrich) and the PARPi treatment group received daily Olaparib 50 mg/kg in 10% HBC for two-four weeks.

Test [2] concerns MLL-AF9 leukemic cells (wild type). The experiment in a line: C57Bl/6 mice transplanted with wild type MLL-AF9 leukemic cells, Olaparib treatment. The test is classed as in vivo, mouse. As to conditions: Olaparib 50 mg/kg daily. As to the method:
as §1

In test [3] the test system is AML1-ETO primary human leukemia cells. The experiment in a line: In vitro treatment of primary AML patient cells carrying AML1-ETO. In kind it is cell-based. As to the method:
NB4-LR2 and THP1 cell lines (kindly provided by Dr Arthur Zelent and Professor Mel Greaves respectively) were cultured in RPMI (Invitrogen) supplemented with 10% selected FBS (R10), 2 mM L-Glutamine. Kasumi cell line (kindly provided by Dr Olaf Heidenreich) was cultured in RPMI-Hepes modified (Sigma) supplemented with 20% selected FBS and 2 mM L-[…]). Cell lines were validated by qPCR for their respective oncogenes. NIH3T3 and GP2 cell line was cultured in DMEM (Invitrogen) supplemented with 10% selected FBS and 2 mM L-Glutamine. Human primary AML cells were cultured in IMEM (Invitrogen) supplemented with […], 2 mM L-Glutamine, 10 ng/mL each of human cytokines, IL3, IL6, SCF, FLT3 ligand, and TPO. Cells were kept at 37° C. and 5% CO2. Use of human primary cells was approved by King's College London committee and consents of the patients were obtained. […] Colonies were scored 6-7 days after plating. […] Cells were counted in at least 5 fields for each slide, for a total of over 100 cells per condition. […] Cells were then washed in PBS and the differentiated cells were indicated by the deposition of dark blue insoluble formazan (NBT positive cells) and the percentage of differentiated cells were counted under microscopy. At least 200 cells were counted in most of the cases.

Setting [4] is: NSG mice succumbed with Kasumi driven disease, Olaparib 25 mg/kg i.p. daily.
Where [5] appears, read: C57Bl6 mice succumbed with MLL-AF9-Hoxa9 KO driven leukemia.
Where [6] appears, read: C57Bl6 mice succumbed with MLL-AF9 wild-type driven leukemia.

As for `O=C(c1cc(Cc2n[nH]c(=O)c3ccccc23)ccc1F)N1CCN(C(=O)C2CC2)CC1` [Olaparib, 4-[(3-[(4-cyclopropylcarbonyl)piperazin-4-yl]carbonyl)-4-fluorophenyl]methyl(2H)-phthalazin-1-one], in the test on Kasumi (AML1-ETO) (setting [4]), the “BM Engraftment (%)” value is listed as 41.35 ± 27.73%, the “Disease Latency (days; median)” value came to 102 days, the “Hematopoietic Liver Engraftment (%)” value is 41.68 ± 26.19% and the “Hematopoietic Spleen Engraftment (%)” value is on record as 48.68 ± 33.71%. In the test on Kasumi (AML1-ETO) (setting [4]), the “Liver” value is listed as 1.999 ± 0.3720 g and the “Spleen” value is reported as 0.1630 ± 0.1198 g. Also, the median survival with Kasumi (AML1-ETO) (monotherapy, disease onset driven by AML1-ETO, control 55 days) worked out at 102 days. Moreover, in test [1] (setting [5]), the “BM Engraftment (%)” value is reported as 82.06 ± 18.95%, the “Disease Latency (days; median)” value turned out to be 67 days, the “Hematopoietic Liver Engraftment (%)” value came out at 62.18 ± 38.26% and the “Hematopoietic Spleen Engraftment (%)” value stood at 65.4 ± 33.45%. Besides, in test [1] (setting [5]), the “Liver” value was found to be 1.696 ± 0.1262 g and the “Spleen” value came to 0.4337 ± 0.1559 g. For the same molecule, in test [1] (Hoxa9 deficient MLL-AF9 leukemic cells), the disease latency entry was “significantly delayed the disease latency”. In test [2] (setting [6]), the “BM Engraftment (%)” value turned out to be 93.30 ± 9.257%, the “Disease Latency (days; median)” value was determined as 34 days, the “Hematopoietic Liver Engraftment (%)” value is listed as 93.16 ± 6.838% and the “Hematopoietic Spleen Engraftment (%)” value is on record as 86.85 ± 13.12%. Besides, in test [2] (setting [6]), the “Liver” value is 4.204 ± 1.425 g and the “Spleen” value came to 0.9309 ± 0.3767 g. In test [2], the “effect on mice transplanted with wild type MLL-AF9 leukemic cells (survival)” value is given as “did not have any significant effect”. Also, in test [3] (1 μM Olaparib for 5 days), the “differentiation of primary AML cells” value is “increased differentiation”. Further, the “in vitro PARPi response (sensitivity)” value in test [3] (primary patient cells treated 5 days) is listed as “highly sensitive”.
